Test results taken from US20170112777A1, “PROTEIN-BASED PARTICLES FOR DRUG DELIVERY” (Dana-Farber Cancer Institute, Inc., priority 2014, published 2017).

Test system: healthy balb/C mice
Assay: Tolerability of intraperitoneal pirfenidone dose
Type: in vivo
Conditions: free drug in 10% ethanol in PBS, 200 mg/kg
Method: Pirfenidone was dissolved in a 10% ethanol in PBS solution and administered intraperitoneally to healthy balb/C mice. The intraperitoneal pirfenidone dose was 200 mg/kg. […] However, the same dose was well-tolerated using albumin nanoparticles containing pirfenidone. The nanoparticles were injected twice daily for a total dose of 200 mg/kg per day for 16 days. This example highlights the ability of drug-loaded nanoparticles to slowly release drugs and lower their toxic side effects.

Structure (SMILES): Cc1ccc(=O)n(-c2ccccc2)c1 [Pirfenidone, pirfenidone]
- Tolerability: immediate neurological symptoms in the mice as well as death
